Laboratory results reported in PubChem BioAssay AID248 (DTP/NCI, 2004).
Toxic doses and inconclusive results are not listed. Cut-off read from the data, not from the text of the source: active = T/C of 150% or more; inactive = T/C below 125%.

System: L1210 leukemia ip in BDF1 mice, survival T/C
Assay: NCI In Vivo Anticancer Drug Screen. Data for tumor model L1210 Leukemia (intraperitoneal) in B6D2F1 (BDF1) mice
Settings: endpoint: mean survival time, higher = longer survival
In short: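 Ratio derived from survival: compound-dosed mice over vehicle-dosed mice, all bearing a transplantable tumor.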

[1] = dose: 50.0 mg/kg/injection, schedule: Q01DX009 (ip), vehicle: saline with Tween-80
[2] = dose: 100.0 mg/kg/injection, schedule: Q01DX009 (ip), vehicle: saline with Tween-80

Measured: T/C

Cc1ccccc1C[P+](c1ccccc1)(c1ccccc1)c1ccccc1
inactive: dose: 12.5 mg/kg/injection, schedule: Q01DX009 (ip), vehicle: acetone 101 % of control | dose: 12.5 mg/kg/injection, schedule: Q04DX003 (ip), vehicle: saline 96 % of control | dose: 25.0 mg/kg/injection, schedule: Q04DX003 (ip), vehicle: saline 102 % of control | dose: 50.0 mg/kg/injection, schedule: Q04DX003 (ip), vehicle: saline 106 % of control

O=C1CC[C@H](NC(=O)OCc2ccccc2)C(=O)O1
inactive: dose: 100.0 mg/kg/injection, schedule: Q04DX003 (ip), vehicle: saline with Tween-80 100 % of control | dose: 200.0 mg/kg/injection, schedule: Q04DX003 (ip), vehicle: saline with Tween-80 100 % of control | dose: 400.0 mg/kg/injection, schedule: Q04DX003 (ip), vehicle: saline with Tween-80 97 % of control

O=C(O)C(Sc1ccccc1)c1ccccc1 (stereo not given)
inactive: dose: 100.0 mg/kg/injection, schedule: Q04DX002 (ip), vehicle: gum acacia 100 % of control | dose: 200.0 mg/kg/injection, schedule: Q04DX002 (ip), vehicle: gum acacia 100 % of control | dose: 400.0 mg/kg/injection, schedule: Q04DX002 (ip), vehicle: gum acacia 104 % of control

O=NN(CCCl)C(=O)Nc1ccc2c3c(cccc13)-c1ccccc1-2
inactive: dose: 118.0 mg/kg/injection, schedule: Q01DX009 (ip), vehicle: carboxymethylcellulose (CMC) 111 % of control | dose: 177.0 mg/kg/injection, schedule: Q01DX009 (ip), vehicle: carboxymethylcellulose (CMC) 119 % of control | dose: 266.0 mg/kg/injection, schedule: Q01DX009 (ip), vehicle: carboxymethylcellulose (CMC) 113 % of control | dose: 600.0 mg/kg/injection, schedule: Q01DX001 (ip), vehicle: carboxymethylcellulose (CMC) 117 % of control | dose: 600.0 mg/kg/injection, schedule: Q01DX009 (ip), vehicle: carboxymethylcellulose (CMC) 98 % of control

C=CCC/C(=C/C(=O)OCC)OCC=C
inactive: [1] 107 % of control | [2] 114 % of control

O=Cc1ccc(Oc2ccc([N+](=O)[O-])cc2[N+](=O)[O-])cc1
inactive: dose: 25.0 mg/kg/injection, schedule: Q01DX009 (ip), vehicle: water 96 % of control | dose: 50.0 mg/kg/injection, schedule: Q01DX009 (ip), vehicle: water 102 % of control | dose: 100.0 mg/kg/injection, schedule: Q01DX009 (ip), vehicle: water 104 % of control | dose: 200.0 mg/kg/injection, schedule: Q01DX009 (ip), vehicle: water 95 % of control | dose: 400.0 mg/kg/injection, schedule: Q01DX009 (ip), vehicle: water 98 % of control

CCOC(=O)CC(C(=O)OCC)C(C(=O)OCC)C(=O)OCC (stereo not given)
inactive: [1] 111 % of control | [2] 101 % of control | dose: 200.0 mg/kg/injection, schedule: Q01DX009 (ip), vehicle: saline with Tween-80 101 % of control
